# Laboratory results as given in patent publication US20240181087A1, “COMPOSITION FOR CONTRAST IMAGING OF CANCER” (ASTELLAS PHARMA INC., priority 2021, published 2024).
# Assays:
# RenCa cell [1] = assay: near-infrared fluorescence imaging of abdominal cavity, peritoneal cancer mouse model (RenCa, intraperitoneal); format: in vivo; settings: tail vein 12 nmol/kg; laparotomy immediately after administration
# Method: Metastatic spontaneous renal cell carcinoma line from BALB/c mouse, RenCa cell (5×10^6 cells, purchased from CLS Cell Lines Service GmbH, Eppelheim, Germany) was intraperitoneally inoculated into a mouse (BALB/cCrSlc, SPF, female, 7 weeks old) and the resultant mouse was bred for 14 days to cause peritoneal cancer therein. The mouse (weight: about 20 g) was anesthetized by subcutaneous administration of ketamine (75 mg/kg) and medetomidine (1 mg/kg), and the compound III (12 nmol/kg weight) was administered through the tail vein. Immediately after the administration, laparotomy was conducted to perform near-infrared fluorescence imaging with a near-infrared fluorescence imaging device (pde-neo, manufactured by Hamamatsu Photonics K.K.).
# RenCa cell [2] = assay: near-infrared fluorescence imaging of lung, lung cancer-bearing mouse (RenCa, tail vein inoculation); format: in vivo; settings: tail vein 120 nmol/kg; after 10 minutes; excised lung
# Method: Metastatic spontaneous renal cell carcinoma line from BALB/c mouse, RenCa cell (1×10^6 cells, purchased from CLS Cell Lines Service GmbH, Eppelheim, Germany) was prepared in RPMI-1640 medium (fetal bovine serum free, FUJIFILM Wako Pure Chemical Corporation), the resultant was inoculated in a mouse (BALB/cCrSlc, SPF, female, 7 weeks old) by tail vein administration under anesthesia by subcutaneous administration of ketamine (75 mg/kg) and medetomidine (1 mg/kg), and the resultant mouse was bred for 18 days to cause lung cancer therein. The mouse was anesthetized by subcutaneous administration of ketamine (75 mg/kg) and medetomidine (1 mg/kg), and the compound III (120 nmol/kg weight) was administered through the tail vein. After 10 minutes, the lung was excised to perform near-infrared fluorescence imaging with a near-infrared fluorescence imaging device (pde-neo, manufactured by Hamamatsu Photonics K.K.).
# [3] = tested on: human glioblastoma cells U-251MG; assay: near-infrared fluorescence imaging after topical administration into tumor, human glioblastoma subcutaneous transplant model; format: in vivo; settings: U-251MG glioblastoma, SCID mouse, 0.02 to 0.1 mL of 1 mg/mL, 1 hour after administration
# Method: A human cancer cell transplant model mouse was created as follows: • (Head and neck/tongue cancer) To immunodeficient SCID mice (weight: 17 g to 23 g), about 10^6 human tongue cancer cells CAL27 (purchased from American Type Culture Collection: ATCC) were subcutaneously administered, and the resultant mice were grown for 49 days to create tumor models. • (Brain cancer/neuroblastoma) To immunodeficient SCID mice (weight: 17 g to 23 g), about 10^6 human neuroblastoma cells SH-SY5Y (purchased from ATCC) were subcutaneously administered, and the resultant mice were grown for 90 days to create tumor models. • (Brain cancer/glioblastoma) To immunodeficient SCID mice (weight: 17 g to 23 g), about 10^6 human glioblastoma cells U-251MG (obtained from European Collection of Authenticated Cell Cultures) were subcutaneously administered, and the resultant mice were grown for 90 days to create tumor models.
# Subsequently, to the tumor of each of the mouse models, 0.02 to 0.1 mL of a saline containing the compound III (concentration of the compound III: 1 mg/mL) was topically administered, and fluorescence imaging was conducted transdermally with a near-infrared fluorescence camera (Fluobeam, manufactured by Fluoptics) (excitation wavelength: 780 nm, detection wavelength: 800 nm or more).
# [4] = tested on: CT26 (colorectal cancer cell); assay: near-infrared fluorescence imaging after administration into tumor, CT26 colorectal cancer model; format: in vivo, mouse; settings: 0.02 to 0.05 mL of 1 mg/mL saline, transdermal imaging
# Text: A syngeneic tumor transplanted mouse model was created as follows referring to “Gan-Shikkan Model no Sakusei to Riyo (Cancer-Creation and Use of Disease Model)” (Takuro Nakamura, LIC, 2012). • (Breast Cancer) A tumor model was created by breeding a normal Balb/c mouse (weight: about 20 g to 30 g) for 14 days with mouse tumor cell 4T1 subcutaneously administered thereto. • (Colorectal Cancer) A tumor model was created by breeding a normal Balb/c mouse (weight: about 20 g to 30 g) for 14 days with CT26 (colorectal cancer cell) subcutaneously administered thereto. • (Skin Cancer) A tumor model was created by breeding a C57BL/6 mouse (weight: about 15 g to 20 g) for 14 days with B16F1 (skin cancer cell) subcutaneously administered thereto.
# Subsequently, to the tumor of each of the model mice, 0.02 to 0.05 mL of a saline containing the compound III or ICG (concentration of the compound III or ICG: 1 mg/mL) was administered, and fluorescence imaging was performed transdermally with a near-infrared fluorescence camera (Fluobeam, manufactured by Fluoptics, http://www.solve-net.com/info/wp-content/uploads/downloads/2013/12/Fluobeam.pdf) (excitation wavelength: 780 nm, detection wavelength: 800 nm or more).
# [5] = tested on: Human stomach cancer cell MKN45; assay: near-infrared fluorescence observation, human stomach cancer cell subcutaneous transplant mouse; format: in vivo; settings: nude mouse, tail vein 120 nmol/kg, observed from above the skin
# Text: Human stomach cancer cell MKN45 (1×10^7 cells, purchased from JCRB cell bank of National Institutes of Biomedical Innovation, Health and Nutrition) was subcutaneously transplanted into the right or left side, or the center of the back in the base of the foreleg of a nude mouse (BALB/cSlc-nu, SPF, male, 5 weeks old), and the resultant mouse was bred for 10 days to create a mouse having a stomach cancer tissue grown therein. After anesthetizing the mouse (weight: about 20 g) by subcutaneous administration of ketamine (75 mg/kg) and medetomidine (1 mg/kg), the compound III (120 nmol/kg weight) was administered through the tail vein, and near-infrared fluorescence was observed from above the skin on the back side with a near-infrared fluorescence imaging device (pde-neo, manufactured by Hamamatsu Photonics K.K.).
# RenCa kidney cancer cell = assay: near-infrared fluorescence observation of kidney, kidney cancer mouse (RenCa in left kidney); format: in vivo; settings: tail vein 12 nmol/kg, after 10 minutes
# Method: Under anesthesia by subcutaneous administration of ketamine (75 mg/kg) and medetomidine (1 mg/kg), RenCa kidney cancer cell (5×10^6 cells, purchased from CLS Cell Lines Service GmbH, Eppelheim, Germany) was transplanted into the left kidney of a mouse (weight: about 20 g), and the resultant mouse was bred for 9 to 14 days to create a kidney cancer mouse. […] The fluorescence from a cancer tissue was weak, the fluorescence from a normal tissue was strong, and thus, the cancer tissue and the normal tissue could be distinguished from each other (FIG. 24).
smiles,measurement,setting,value
"COC1=C(/C=C/C2=[N+](CCC(=O)NCCCO[C@H]3[C@H]4O[C@H]5[C@H](O)[C@@H](O)[C@@H](O[C@H]6[C@H](O)[C@@H](O)[C@@H](O[C@H]7[C@H](O)[C@@H](O)[C@@H](O[C@H]8[C@H](O)[C@@H](O)[C@@H](O[C@H]9[C@H](O)[C@@H](O)[C@@H](O[C@H]%10[C@H](O)[C@@H](O)[C@@H](O[C@@H]([C@@H]3O)[C@@H](CO)O4)O[C@@H]%10CO)O[C@@H]9CO)O[C@@H]8CO)O[C@@H]7CO)O[C@@H]6CO)O[C@@H]5CO)c3ccc4ccccc4c3C2(C)C)CCC/C1=C\C=C1\N(CCC(=O)NCCCO[C@H]2[C@H]3O[C@H]4[C@H](O)[C@@H](O)[C@@H](O[C@H]5[C@H](O)[C@@H](O)[C@@H](O[C@H]6[C@H](O)[C@@H](O)[C@@H](O[C@H]7[C@H](O)[C@@H](O)[C@@H](O[C@H]8[C@H](O)[C@@H](O)[C@@H](O[C@H]9[C@H](O)[C@@H](O)[C@@H](O[C@@H]([C@@H]2O)[C@@H](CO)O3)O[C@@H]9CO)O[C@@H]8CO)O[C@@H]7CO)O[C@@H]6CO)O[C@@H]5CO)O[C@@H]4CO)c2ccc3ccccc3c2C1(C)C.[Cl-] [compound III, 3-(3-{[3-(cyclomaltoheptaose-21-O-yl)propyl]amino}-3-oxopropyl)-2-{(1E)-2-[(3E)-3-{(2E)-2-[3-(3-{[3-(cyclomaltoheptaose-21-O-yl)propyl]amino}-3-oxopropyl)-1,1-dimethyl-1,3-dihydro-2H-benzo[e]indol-2-ylidene]ethylidene}-2-methoxycyclohexa-1-en-1-yl]ethene-1-yl}-1,1-dimethyl-1H-benzo[e]indol-3-ium chloride]",near-infrared fluorescence from peritoneal cancer site versus normal tissue,RenCa cell [1],stronger than that from a normal tissue
same,intensity of near-infrared fluorescence in lung cancer site,RenCa cell [2],low
same,retention inside the tumor (fluorescence imaging),[3],retained inside the tumor
same,retention in tumor (fluorescence imaging),[4],retained in the tumor
same,near-infrared fluorescence of stomach cancer tissue versus normal tissue,[5],stronger in a cancer tissue than in a normal tissue
same,fluorescence from kidney cancer tissue,RenCa kidney cancer cell,weak
same,fluorescence from normal kidney tissue,RenCa kidney cancer cell,strong
